ChEMBL document CHEMBL1275450, “Posaconazole enhances the activity of amphotericin B against hyphae of zygomycetes in vitro” (2008)
Converted amounts (≈) assume the structure as drawn.

How the values were obtained:
Format in all cases: functional
[1] = tested on: Syncephalastrum racemosum; test: Antimicrobial activity against Syncephalastrum racemosum conidia after 24 hrs by AFST-EUCAST method
[2] = tested on: Rhizopus; test: Antimicrobial activity against Rhizopus spp. hyphae after 24 hrs by AFST-EUCAST method
[3] = tested on: Cunninghamella bertholletiae; test: Antimicrobial activity against Cunninghamella bertholletiae hyphae after 24 hrs by AFST-EUCAST method
[4] = tested on: Lichtheimia corymbifera; test: Antimicrobial activity against Absidia corymbifera hyphae after 24 hrs by AFST-EUCAST method
[5] = tested on: Mucor; test: Antimicrobial activity against Mucor spp. hyphae after 24 hrs by AFST-EUCAST method
[6] = tested on: Syncephalastrum racemosum; test: Antimicrobial activity against Syncephalastrum racemosum hyphae after 24 hrs by AFST-EUCAST method
[7] = tested on: Rhizomucor; test: Antimicrobial activity against Rhizomucor spp. conidia after 24 hrs by AFST-EUCAST method
[8] = tested on: Rhizomucor; test: Antimicrobial activity against Rhizomucor spp. hyphae after 24 hrs by AFST-EUCAST method
[9] = tested on: Cunninghamella bertholletiae; test: Antimicrobial activity against Cunninghamella bertholletiae conidia after 24 hrs by AFST-EUCAST method
[10] = tested on: Lichtheimia corymbifera; test: Antimicrobial activity against Absidia corymbifera conidia after 24 hrs by AFST-EUCAST method
[11] = tested on: Mucor; test: Antimicrobial activity against Mucor spp. conidia after 24 hrs by AFST-EUCAST method
[12] = tested on: Rhizopus; test: Antimicrobial activity against Rhizopus spp. conidia after 24 hrs by AFST-EUCAST method
[13] = Antimicrobial activity against Rhizopus microsporus hyphae after 24 hrs by XTT method in presence of amphotericin B
[14] = tested on: Lichtheimia corymbifera; test: Antimicrobial activity against Absidia corymbifera hyphae after 24 hrs by XTT method in presence of amphotericin B
[15] = tested on: Syncephalastrum racemosum; test: Antimicrobial activity against Syncephalastrum racemosum conidia after 24 hrs by XTT method in presence of amphotericin B
[16] = Antimicrobial activity against Rhizopus microsporus conidia after 24 hrs by XTT method in presence of amphotericin B
[17] = tested on: Rhizomucor; test: Antimicrobial activity against Rhizomucor spp. hyphae after 24 hrs by XTT method in presence of amphotericin B
[18] = tested on: Rhizopus arrhizus; test: Antimicrobial activity against Rhizopus oryzae conidia after 24 hrs by XTT method in presence of amphotericin B
[19] = tested on: Mucor; test: Antimicrobial activity against Mucor spp. conidia after 24 hrs by XTT method in presence of amphotericin B
[20] = tested on: Rhizomucor; test: Antimicrobial activity against Rhizomucor spp. conidia after 24 hrs by XTT method in presence of amphotericin B
[21] = tested on: Syncephalastrum racemosum; test: Antimicrobial activity against Syncephalastrum racemosum hyphae after 24 hrs by XTT method in presence of amphotericin B
[22] = tested on: Mucor; test: Antimicrobial activity against Mucor spp. hyphae after 24 hrs by XTT method in presence of amphotericin B
[23] = tested on: Rhizopus arrhizus; test: Antimicrobial activity against Rhizopus oryzae hyphae after 24 hrs by XTT method in presence of amphotericin B
[24] = tested on: Cunninghamella bertholletiae; test: Antimicrobial activity against Cunninghamella bertholletiae hyphae after 24 hrs by XTT method in presence of amphotericin B
[25] = tested on: Cunninghamella bertholletiae; test: Antimicrobial activity against Cunninghamella bertholletiae conidia after 24 hrs by XTT method in presence of amphotericin B
[26] = tested on: Lichtheimia corymbifera; test: Antimicrobial activity against Absidia corymbifera conidia after 24 hrs by XTT method in presence of amphotericin B

SMILES	MIC [1]	MIC [2]	MIC [3]	MIC [4]	MIC [5]	MIC [6]	MIC [7]	MIC [8]	MIC [9]	MIC [10]	MIC [11]	MIC [12]	other results
C[C@@H]1[C@H](O)[C@@H](C)/C=C/C=C/C=C/C=C/C=C/C=C/C=C/[C@H](O[C@@H]2O[C@H](C)[C@@H](O)[C@H](N)[C@@H]2O)C[C@@H]2O[C@](O)(C[C@@H](O)C[C@@H](O)[C@H](O)CC[C@@H](O)C[C@@H](O)CC(=O)O[C@H]1C)C[C@H](O)[C@H]2C(=O)O [AMPHOTERICIN B]	0.5 µg/mL (≈ 0.541 µM)	1 µg/mL (≈ 1.08 µM)	1 µg/mL (≈ 1.08 µM)	1 µg/mL (≈ 1.08 µM)	1 µg/mL (≈ 1.08 µM)	1 µg/mL (≈ 1.08 µM)	0.5 µg/mL (≈ 0.541 µM)	1 µg/mL (≈ 1.08 µM)	0.5 µg/mL (≈ 0.541 µM)	0.5 µg/mL (≈ 0.541 µM)	0.5 µg/mL (≈ 0.541 µM)	0.5 µg/mL (≈ 0.541 µM)	–
CC[C@@H]([C@H](C)O)n1ncn(-c2ccc(N3CCN(c4ccc(OC[C@@H]5CO[C@@](Cn6cncn6)(c6ccc(F)cc6F)C5)cc4)CC3)cc2)c1=O [POSACONAZOLE]	0.25 µg/mL (≈ 0.357 µM)	1 µg/mL (≈ 1.43 µM)	1 µg/mL (≈ 1.43 µM)	1 µg/mL (≈ 1.43 µM)	1 µg/mL (≈ 1.43 µM)	1 µg/mL (≈ 1.43 µM)	0.25 µg/mL (≈ 0.357 µM)	1 µg/mL (≈ 1.43 µM)	0.25 µg/mL (≈ 0.357 µM)	0.25 µg/mL (≈ 0.357 µM)	0.25 µg/mL (≈ 0.357 µM)	0.25 µg/mL (≈ 0.357 µM)	fractional inhibitory concentration index (FICI) [13]: 0.37; fractional inhibitory concentration index (FICI) [14]: 0.37; fractional inhibitory concentration index (FICI) [15]: 1; fractional inhibitory concentration index (FICI) [16]: 0.37; fractional inhibitory concentration index (FICI) [17]: 0.75; fractional inhibitory concentration index (FICI) [18]: 0.75; fractional inhibitory concentration index (FICI) [19]: 1.25; fractional inhibitory concentration index (FICI) [20]: 0.5; fractional inhibitory concentration index (FICI) [21]: 0.6; fractional inhibitory concentration index (FICI) [22]: 0.5; fractional inhibitory concentration index (FICI) [23]: 1; fractional inhibitory concentration index (FICI) [24]: 0.5; fractional inhibitory concentration index (FICI) [25]: 1.1; fractional inhibitory concentration index (FICI) [26]: 0.75
